Results on six compounds are retold here after patent EP0339681B1, “Antitumor antibiotic substance” (MEIJI SEIKA KAISHA LTD., priority 1988, dated 1989).

The subject of one assay is infection. As to conditions: mouse, in vivo; cited from earlier work.
Another assay has as its system P-388 tumor cells. The assay is described as follows: Therapeutic test on mice with intraperitoneally transplanted P-388 tumor cells. Particulars: intraperitoneally once a day for two days. The assay is classed as in vivo, mouse. The protocol:
To evaluate antitumor activity of the test compounds, the following therapeutic test was conducted.
P-388 tumor cells were transplanted into the abdominal cavity of a mouse. A test compound was intraperitoneally administered to the animal once a day for two days. The effect thus observed is expressed in ILS (%). [formula]

The subject of assay [1] is P-388 mouse leukemia cells. Briefly: Cytotoxic effect: 50% growth inhibition of P-388 cells. As to conditions: P388, 72 h, read-out: IC₅₀.

Converted amounts (≈) assume the structure as drawn.

Turning to `COC(=O)C1(C)Nc2c(O)cc3c(c2C1=O)C(CO)CN3C(=O)c1cc2cc(OC)c(OC)c(OC)c2[nH]1` (stereo not drawn), the “therapeutic effect on infection” value in the assay with infection is “therapeutic effect on infection”.

In the case of `COC(=O)C1(C)Nc2c(OS(C)(=O)=O)cc3c(c2C1=O)C(COS(C)(=O)=O)CN3C(=O)c1cc2cc(OC)c(OC)c(OC)c2[nH]1` (stereo not drawn) [Compound 1], the “ILS (%)” value in the assay on P-388 tumor cells (Dose 2.4 mg/kg) is 40%; with P-388 tumor cells (Dose 7 mg/kg), 40%; in the assay with P-388 tumor cells (Dose 21 mg/kg) it was 54%. Besides, the IC50 in assay [1] worked out at 0.06 µg/mL (≈ 0.088 µM).

`COC(=O)C1(C)Nc2c(OS(C)(=O)=O)cc3c(c2C1=O)C(CO)CN3C(=O)c1cc2cc(OC)c(OC)c(OC)c2[nH]1` (stereo not drawn) [Compound 2]: the “ILS (%)” value is 15% in the assay on P-388 tumor cells (Dose 0.25 mg/kg), 40% with P-388 tumor cells (Dose 0.5 mg/kg) and 40% in the assay on P-388 tumor cells (Dose 1 mg/kg). In addition, the IC50 in assay [1] is 0.004 µg/mL (≈ 0.00663 µM).

Turning to `COC(=O)C1(C)Nc2c(OS(=O)(=O)c3ccc(C)cc3)cc3c(c2C1=O)C(CO)CN3C(=O)c1cc2cc(OC)c(OC)c(OC)c2[nH]1` (stereo not drawn) [Compound 3], in assay [1], the IC50 came out at 2.5 µg/mL (≈ 3.68 µM).

`COC(=O)C1(C)Nc2c(O)cc3c(c2C1=O)C(CCl)CN3C(=O)c1cc2cc(OC)c(OC)c(OC)c2[nH]1` (stereo not drawn) [SF2582A]: the “therapeutic effect on infection” value in the assay on infection is “therapeutic effect on infection”.

Take `COC(=O)C1(C)Nc2c(O)cc3c(c2C1=O)CC(Cl)CN3C(=O)c1cc2cc(OC)c(OC)c(OC)c2[nH]1` (stereo not drawn) [SF2582B]: in the assay on infection, the “therapeutic effect on infection” value was “therapeutic effect on infection”.
